# Assay results from patent publication US11459295B2, “2-beta-naphthyl-acetic acid analogs as AKR1C3 inhibitors and methods of using same” (THE TRUSTEES OF THE UNIVERSITY OF PENNSYLVANIA, priority 2015, dated 2022).
# Values joined by “and” are separate entries in the source; they are usually repeats but may differ in a detail not shown here. Equal values may be shown once.
# Legend:
# AKR1C2 [1] = target: T1, AKR1C2 (Homo sapiens (Human), UniProt P52895); assay: S-tetralol oxidation assay, AKR1C2; format: biochemical; conditions: NADP+ dependent oxidation of S-tetralol, S-tetralol at Km; Table 1
# Experimental: Enzyme Purification: Homogenous recombinant enzymes AKR1C1-4 were prepared and purified (Burczynski, et al., 1998, Biochemistry 37:6781-6790). Enzymes were purified to constant specific activity and their purity established by SDS-PAGE. All AKR enzymes were stored at −80° C. in 20 mM potassium phosphate buffer pH 7.0 containing 30% glycerol, 1 mM EDTA, and 1 mM β-mercaptoethanol. Under standard assay conditions, the specific activity of AKR1C1 for the NAD^+ dependent oxidation of 1-acenaphthenol (Sigma) was 2.0 μmol min^−1 mg^−1. The specific activities of AKR1C2 and AKR1C3 for the NAD^+ dependent oxidation of S-tetralol (Sigma) were 1.5 and 2.0 μmol min^−1 mg^−1, respectively, and the specific activity of AKR1C4 for the NAD^+ dependent oxidation of androsterone (Steraloids) was 0.3 μmol min^−1 mg^−1. The specific activities of AKR1C enzymes were determined by measuring the formation of NADH at 340 nm using a Beckman DU640 spectrophotometer. A typical assay solution contained 100 mM potassium phosphate pH 7.0, 2.3 mM NAD^+, 200 μM 1-acenaphthenol for AKR1C1, 3.0 mM Stetralol for AKR1C2 and 1C3, and 75 μM androsterone for AKR1C4, 4% acetonitrile (v/v). The mixtures were incubated at 25° C. (AKR1C1 and 1C4) or 37° C. (AKR1C2 and 1C3) for 3 min, followed by adding a serial dilution of enzyme solution to a final volume of 1 mL to initiate the reaction. After continuously monitoring for 5 min, the increase in UV absorption using different concentrations of enzyme were recorded to calculate the initial velocity of substrate oxidation and determine enzyme-specific activity.
# the inhibitory potency of the individual compounds against the AKR1C isoforms was determined by monitoring the NADP^+ dependent oxidation of S-tetralol catalyzed by the AKR1C enzymes using substrate concentrations at their Km values in the presence and absence of varying concentration of the inhibitors (Adeniji, et al., 2012, J Med Chem 55:2311-2323). Reaction systems (200 μL) contained 100 mM potassium phosphate buffer (pH 7.0), 4% DMSO, 200 μM NADP^+, a serial dilution of compounds, S-tetralol, and AKR1C enzymes. […] The concentration of AKR1C1, 1C2, 1C3, and 1C4 was 111, 86, 95, and 552 nM, respectively. Reagents were mixed and incubated at 37° C. for 10 min followed by adding AKR1C enzymes to initiate the reaction. […] To determine the pattern of inhibition, five fixed concentrations of S-tetralol were used and four different concentrations of inhibitor were used and a gobal fit of the equations for COMP, NONCOMP and UNCOMP to the data was applied using Grafit.
# COX-1 = COX-1 (Ovis aries (Sheep), UniProt P05979); assay: COX-1 assay (TMPD oxidation); format: biochemical, ram
# Experimental: The purity of the enzyme was assessed by SDS-PAGE. […] Reagents were mixed and incubated at 25° C. for 5 min followed by adding a mixture of TMPD and arachidonic acid to initiate the reaction. Specific activity was determined based on the initial velocity of the reduction of PGG2 formed in the reaction.
# The effect of the compounds on COX-1 activity was determined by a continuous colorimetric assay that monitored the oxidation of N, N, N, N-tetramethyl-1,4-phenylenediamine (TMPD) when coupled to the COX catalyzed formation of PGH2 from PGG2 using arachidonic acid as substrate. […] Reagents were mixed and incubated at 25° C. for 5 min followed by adding a mixture of TMPD and arachidonic acid to initiate the reaction.
# COX-2 = COX-2 (Mus musculus, UniProt Q05769); assay: COX-2 inhibition; format: biochemical
# AKR1C3 [2] = target: T2, AKR1C3 (Homo sapiens (Human), UniProt P42330); assay: S-tetralol oxidation assay, AKR1C3; format: biochemical
# Experimental: Enzymes were purified to constant specific activity and their purity established by SDS-PAGE. All AKR enzymes were stored at −80° C. in 20 mM potassium phosphate buffer pH 7.0 containing 30% glycerol, 1 mM EDTA, and 1 mM β-mercaptoethanol. […] The specific activities of AKR1C enzymes were determined by measuring the formation of NADH at 340 nm using a Beckman DU640 spectrophotometer. […] The mixtures were incubated at 25° C. (AKR1C1 and 1C4) or 37° C. (AKR1C2 and 1C3) for 3 min, followed by adding a serial dilution of enzyme solution to a final volume of 1 mL to initiate the reaction. After continuously monitoring for 5 min, the increase in UV absorption using different concentrations of enzyme were recorded to calculate the initial velocity of substrate oxidation and determine enzyme-specific activity.
# Reagents were mixed and incubated at 37° C. for 10 min followed by adding AKR1C enzymes to initiate the reaction. […] To determine the pattern of inhibition, five fixed concentrations of S-tetralol were used and four different concentrations of inhibitor were used and a gobal fit of the equations for COMP, NONCOMP and UNCOMP to the data was applied using Grafit.
# LNCaP-AKR1C3 cells [3] = assay: Radiometric assay of androgen metabolism; format: cell-based; conditions: 100 nM Δ4-AD, 30 μM compound, 48 h
# Experimental: LNCaP-AKR1C3 cells seeded at a density of 1.5×10^6 cells were plated in 6 well plates in CSS media. The cells were allowed to incubate for 24 h, after which the media was aspirated and fresh CSS media with 7.5 nM (1.26 μCi) of [^3H] Δ^4-AD and 92.5 nM of cold Δ^4-AD (to obtain a final concentration of 100 nM) was added in the presence and absence of 30 μM of compound 8a in each well. The cells were incubated for 48 h, after which time the media was collected for analysis (Byrns, et al., 2012, J. Steroid. Biochem. & Mol. Biol. 130:7-15). The media was extracted twice with cold ethyl acetate. In order to determine radioactivity of each phase, a portion of each fraction was added to Ultima Gold (Perkin Elmer Life Sciences) scintillation fluid and analyzed on a TriCarb 2100 (Packard Instruments, Perkin Elmer Life Sciences), all CPM counts were blank-adjusted and reported as corrected cpm. The aqueous phases were acidified to pH 6.5 with acetic acid and subjected to treatment with 400 U of E. coli β-glucuronidase at 37° C. for 24 h. The de-conjugated androgens were re-extracted as described elsewhere herein, dried in vacuum and re-dissolved in 100 μL ethyl acetate for separation on the multi-channel LK6D Silica TLC plates. Plates were developed using dichloromethane/ethyl acetate (80:20 v/v) and scanned on the BioScan 200 plate reader.
# AKR1C2 [4] = target: T1, AKR1C2; assay: AKR1C2 catalyzed NADPH dependent reduction of 5α-DHT; format: biochemical; conditions: 5α-DHT reduction, <100 μM concentrations
# Experimental: Compounds were tested for their ability to inhibit the AKR1C3 catalyzed, reduction of [^3H]-Δ^4-AD and the AKR1C2 catalyzed reduction of [^3H]-5α-DHT. Compounds were incubated with purified recombinant enzyme and radiolabeled steroid in 100 mM phosphate buffer pH7.0 and 4% DMSO at 37° C. The reaction was initiated by the addition of 1 mM NADPH, aliquots were removed over time and subsequently quenched by the addition of ice cold ethyl acetate. The ethyl acetate fraction was extracted and dried in vacuum. Steroid reference standards and extracts were dissolved in 50 μl ethyl acetate and applied to LK6D Silica TLC plates (Whatman Inc., Clifton, N.J.). TLC plates were developed using a dichloromethane/ethyl acetate (80:20 v/v) solution and were scanned with a Bioscan System 200 plate reader (Washington, D.C.). The percentage of radioactivity in the product peak was calculated assuming that the combined radioactivity in the substrate and product peaks was 100%. Initial velocities were computed by converting the percentage of radioactivity in the product peak by the specific radioactivity of the starting material to generate pmoles/min.
# AKR1C1 = AKR1C1 (Homo sapiens (Human), UniProt Q04828); assay: S-tetralol oxidation assay, AKR1C1; format: biochemical
# AKR1C3 [5] = target: T2, AKR1C3; assay: AKR1C3 catalyzed reduction of Δ4-AD; format: biochemical; conditions: E.NADPH.I complex; read-out: Ki, competitive inhibition of AKR1C3 catalyzed reduction of Δ4-AD
# From the text: The ethyl acetate fraction was extracted and dried in vacuum.
# LNCaP-AKR1C3 cells [6] = assay: Western blot of Δ4-AD induced PSA expression; format: cell-based; conditions: 100 nM Δ4-AD, 30 μM compound
# Experimental: LNCaP cells stably expressing AKR1C3 (LNCaP-AKR1C3 cells) (Byrns, et al., 2012, J. Steroid. Biochem. & Mol. Biol. 130:7-15) seeded at a density of 1.5×10^6 cells were plated in 6 cm dishes containing phenol red free RPMI-1640 media supplemented with 5% CDFBS, 1% Pen/Strep and 2 mM L-Glutamine (CSS media). The cells were incubated for 24 h after which media was aspirated and fresh CSS media containing 100 nM Δ^4-AD plus and minus inhibitors. The cells were incubated for 24 h after which they were harvested in RIPA lysis buffer supplemented with protease inhibitors at 4° C. Lysate protein concentration was determined by the Bradford assay using the BIORAD protein dye (Bio-Rad). The samples were subjected to electrophoresis on a 12% SDS-PAGE gel that was subsequently transferred to a nitrocellulose membrane. The membrane was probed with the appropriate antibodies as follows; anti β-tubulin (Millipore, #05-661) anti-PSA (Meridian Life Science, Inc., #K92110R). Blots were imaged using the ECL reagent (Pierce) and GelDoc XR+ System and Image Lab software (Bio-Rad).
# [7] = highest inhibitor concentration (100 μM) tested
# [8] = NADP+ dependent oxidation of S-tetralol, S-tetralol at Km, Table 1
# Sequence of COX-1 (P05979 25-600): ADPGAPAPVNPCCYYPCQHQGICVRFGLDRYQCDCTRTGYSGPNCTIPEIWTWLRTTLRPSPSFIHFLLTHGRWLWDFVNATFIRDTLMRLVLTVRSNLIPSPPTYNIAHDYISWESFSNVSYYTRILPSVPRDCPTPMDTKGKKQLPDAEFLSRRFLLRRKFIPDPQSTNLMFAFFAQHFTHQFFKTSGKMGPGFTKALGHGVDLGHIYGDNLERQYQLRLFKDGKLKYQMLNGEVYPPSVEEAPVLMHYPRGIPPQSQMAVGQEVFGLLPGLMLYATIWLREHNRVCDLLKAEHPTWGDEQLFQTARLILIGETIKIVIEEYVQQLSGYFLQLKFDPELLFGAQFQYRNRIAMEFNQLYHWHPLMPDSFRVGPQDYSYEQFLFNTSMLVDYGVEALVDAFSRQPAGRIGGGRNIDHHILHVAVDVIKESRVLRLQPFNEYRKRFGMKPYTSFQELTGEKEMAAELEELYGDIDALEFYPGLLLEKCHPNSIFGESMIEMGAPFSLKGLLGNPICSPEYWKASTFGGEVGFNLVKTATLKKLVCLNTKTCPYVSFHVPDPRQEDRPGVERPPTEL
# T2 sequence (P42330 whole entry): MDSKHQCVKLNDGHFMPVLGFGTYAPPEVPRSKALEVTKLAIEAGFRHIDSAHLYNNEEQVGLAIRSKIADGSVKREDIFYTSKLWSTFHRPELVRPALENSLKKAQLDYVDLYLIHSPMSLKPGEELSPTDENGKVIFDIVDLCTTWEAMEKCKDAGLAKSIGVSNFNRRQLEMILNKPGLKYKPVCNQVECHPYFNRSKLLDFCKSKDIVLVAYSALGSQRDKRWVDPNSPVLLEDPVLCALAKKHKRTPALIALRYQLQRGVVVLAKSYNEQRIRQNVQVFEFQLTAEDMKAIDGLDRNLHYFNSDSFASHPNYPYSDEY
# T1 sequence (P52895 whole entry): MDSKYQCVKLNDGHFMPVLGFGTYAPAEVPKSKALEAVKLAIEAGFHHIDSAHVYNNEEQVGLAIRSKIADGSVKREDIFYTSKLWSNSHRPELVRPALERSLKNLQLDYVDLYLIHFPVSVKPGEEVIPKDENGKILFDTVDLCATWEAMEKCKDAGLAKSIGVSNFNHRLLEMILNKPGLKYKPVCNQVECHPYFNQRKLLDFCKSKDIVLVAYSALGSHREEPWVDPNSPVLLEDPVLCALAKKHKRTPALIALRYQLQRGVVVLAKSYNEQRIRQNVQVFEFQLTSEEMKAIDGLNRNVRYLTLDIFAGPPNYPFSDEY
# Sequence of COX-2 (Q05769 18-604 limits assumed): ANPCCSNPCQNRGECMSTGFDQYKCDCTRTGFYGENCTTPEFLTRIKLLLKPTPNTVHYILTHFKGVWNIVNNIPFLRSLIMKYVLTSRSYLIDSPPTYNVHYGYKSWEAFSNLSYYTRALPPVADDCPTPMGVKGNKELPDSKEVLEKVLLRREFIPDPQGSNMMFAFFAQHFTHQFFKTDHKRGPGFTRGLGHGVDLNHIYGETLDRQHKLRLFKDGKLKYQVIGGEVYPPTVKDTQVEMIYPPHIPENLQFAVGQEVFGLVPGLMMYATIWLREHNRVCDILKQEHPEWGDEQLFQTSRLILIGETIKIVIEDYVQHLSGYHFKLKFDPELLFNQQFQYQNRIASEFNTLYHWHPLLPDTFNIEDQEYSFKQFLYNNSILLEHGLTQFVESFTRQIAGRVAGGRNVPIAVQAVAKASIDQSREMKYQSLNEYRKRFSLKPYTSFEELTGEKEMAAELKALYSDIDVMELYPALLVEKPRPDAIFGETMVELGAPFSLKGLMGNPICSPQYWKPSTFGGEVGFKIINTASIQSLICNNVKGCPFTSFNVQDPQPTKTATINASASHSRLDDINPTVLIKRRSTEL
# Sequence of AKR1C1 (Q04828 whole entry, looked up): as the sequence (P52895 whole entry) above, with V38T, H47R, V54L, S87C, M151V, H170R, L172Q counted along it
Compound,IC50 (AKR1C2 [1]),IC50 (AKR1C3 [2]; [8]) [nM],other results
"COc1ccc2cc([C@@H](C)C(=O)O)ccc2c1 [R-Naproxen (1a), reference compound]",2750 nM,,inhibition of COX-1 activity (COX-1; [7]): less than 20%; IC50 (COX-2; Table 2): > 25000 nM
"CSc1ccc2cc([C@@H](C)C(=O)O)ccc2c1 [(R)-4a, 2(R)-(6-(methylthio)naphthalen-2-yl)propanoic acid]",4350 ± 610 nM,50 ± 1.5,
"COc1ccc2cc(C(C)(C)C(=O)O)ccc2c1 [DimethylNaproxen 9, 2-(6-methoxynaphthalen-2-yl)-2-methylpropanoic acid]",1320 nM,270,"Ratio IC50 value (AKR1C2/AKR1C3) (AKR1C3 [2]; selectivity for AKR1C3 over AKR1C2, Table 1): 5"
"CC(C(=O)O)c1ccc2cc([S+](C)[O-])ccc2c1 (racemic) [LM5754(±) 5, 2-(6-(Methylsulfinyl)naphthalen-2-yl)propanoic Acid]",6300 ± 350 nM,,
"CCc1ccc2cc(C(C)C(=O)O)ccc2c1 (racemic) [LM5751(±) 2, 2-(6-Ethylnaphthalen-2-yl)propanoic Acid]",1900 ± 110 nM,120 ± 7.5,
"CCOc1ccc2cc(C(C)C(=O)O)ccc2c1 (racemic) [LM5753(±) 3, 2-(6-Ethoxynaphthalen-2-yl)propanoic Acid]",2400 ± 240 nM,100 ± 7.6,
"CC[C@@H](C(=O)O)c1ccc2cc(OC)ccc2c1 [LM5750B 8a, 2(R)-(6-methoxynaphthalen-2-yl)butanoic acid]",46400 nM and 48100 nM,110 ± 10,"production of 3H-testosterone glucuronide (LNCaP-AKR1C3 cells [3]): significantly inhibited; inhibition of AKR1C2 (AKR1C2 [4]): did not display any significant inhibition; IC50 (AKR1C1): 50000 nM; IC50 (COX-1; arachidonic acid as substrate): > 100000 nM; inhibition at 100 µM (COX-1; [7]): < 20%; Ki (AKR1C3 [2]; E.NADP+.I complex, read-out: Ki, competitive inhibition of AKR1C3 catalyzed oxidation of S-tetralol): 31 nM; preference for the E.NADP+ complex (AKR1C3 [2]; over E.NADPH complex): 20 fold; pattern of AKR1C3 inhibition (AKR1C3 [2]; oxidation of S-tetralol): competitively inhibited; Ki (AKR1C3 [5]): 750 nM; Δ4-AD mediated increase in PSA expression (LNCaP-AKR1C3 cells [6]): inhibited"
"CC(C(=O)O)c1ccc2cc(S(C)(=O)=O)ccc2c1 (racemic) [LM5754(±) 6, 2-(6-(Methylsulfonyl)naphthalen-2-yl)propanoic Acid]",3000 ± 140 nM,,
"COc1ccc2cc(CC(=O)O)ccc2c1 [DesmethylNaproxen 10, 2-(6-methoxynaphthalen-2-yl)acetic acid]",19000 ± 3700 nM,650 ± 110,
"COc1ccc2cc([C@H](C)C(=O)O)ccc2c1 [S-Naproxen (1), (S)-2-(6-methoxynaphthalen-2-yl)propanoic acid, reference compound]",1260 ± 150 nM,,
"CSc1ccc2cc(C(C)C(=O)O)ccc2c1 (racemic) [LM5752(±) 4, 2-(6-(Methylthio)naphthalen-2-yl)propanoic Acid]",1500 ± 140 nM,,IC50 (AKR1C3 [2]; S-tetralol oxidation): 60 nM; increase in the inhibitory potency for AKR1C3 (AKR1C3 [2]; over naproxen): 3 fold
"CCC(C(=O)NS(C)(=O)=O)c1ccc2cc(OC)ccc2c1 (racemic) [LM5885 (±) 7, 2-(6-Methoxynaphthalen-2-yl)-N-(methylsulfonyl)butanamide]",34000 nM,,
"CCC(C(=O)O)c1ccc2cc(OC)ccc2c1 (racemic) [LM5750(±) 8, 2-(6-Methoxynaphthalen-2-yl)butanoic Acid]",7600 ± 950 nM,,IC50 (AKR1C3 [2]; S-tetralol oxidation): 120 nM; inhibitory activity on COX-2 (COX-2; maximum concentration of arachidonic acid tested as substrate (10 μM)): no inhibitory activity
